Assay results taken from PubChem BioAssay (NCI).
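Cultured in 96-well plates, cells were exposed to test compound for 48 hours across five concentrations. The concentration for 50% growth inhibition is given as GI50. The concentration for full growth arrest is given as TGI.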

Legend:
Test in all cases: NCI-60 cell line screen, 48 h
SF-295 CNS = test system: SF-295 CNS
A498 renal = test system: A498 renal
OVCAR-5 ovarian = test system: OVCAR-5 ovarian
SN12C renal = test system: SN12C renal
HS 578T breast = test system: HS 578T breast
NCI/ADR-RES ovarian = test system: NCI/ADR-RES ovarian
EKVX NSCLC = test system: EKVX NSCLC
SF-268 CNS = test system: SF-268 CNS
SK-MEL-28 melanoma = test system: SK-MEL-28 melanoma
MALME-3M melanoma = test system: MALME-3M melanoma
PC-3 prostate = test system: PC-3 prostate
MOLT-4 leukemia = test system: MOLT-4 leukemia
ACHN renal = test system: ACHN renal
786-0 renal = test system: 786-0 renal
MDA-MB-231 breast = test system: MDA-MB-231 breast
NCI-H522 lung = test system: NCI-H522 lung
UACC-62 melanoma = test system: UACC-62 melanoma
DU-145 prostate = test system: DU-145 prostate
A549 NSCLC = test system: A549 NSCLC
BT-549 breast = test system: BT-549 breast
UO-31 renal = test system: UO-31 renal
SF-539 CNS = test system: SF-539 CNS
HCT-15 colon = test system: HCT-15 colon
RXF 393 renal = test system: RXF 393 renal
NCI-H226 lung = test system: NCI-H226 lung
M14 melanoma = test system: M14 melanoma
IGROV1 ovarian = test system: IGROV1 ovarian
U251 CNS = test system: U251 CNS
HL-60(TB) leukemia = test system: HL-60(TB) leukemia
KM12 colon = test system: KM12 colon
TK-10 renal = test system: TK-10 renal
SW-620 colon = test system: SW-620 colon
NCI-H460 lung = test system: NCI-H460 lung
K-562 leukemia = test system: K-562 leukemia
SK-MEL-5 melanoma = test system: SK-MEL-5 melanoma
RPMI-8226 leukemia = test system: RPMI-8226 leukemia
OVCAR-8 ovarian = test system: OVCAR-8 ovarian
NCI-H23 lung = test system: NCI-H23 lung
SR leukemia = test system: SR leukemia
UACC-257 melanoma = test system: UACC-257 melanoma
CAKI-1 renal = test system: CAKI-1 renal
HOP-92 NSCLC = test system: HOP-92 NSCLC
CCRF-CEM leukemia = test system: CCRF-CEM leukemia
MDA-MB-435 = test system: MDA-MB-435
MCF7 breast = test system: MCF7 breast
OVCAR-4 ovarian = test system: OVCAR-4 ovarian
OVCAR-3 ovarian = test system: OVCAR-3 ovarian
SK-MEL-2 melanoma = test system: SK-MEL-2 melanoma
COLO 205 colon = test system: COLO 205 colon
T-47D breast = test system: T-47D breast
SK-OV-3 ovarian = test system: SK-OV-3 ovarian
HCT-116 colon = test system: HCT-116 colon
LOX IMVI melanoma = test system: LOX IMVI melanoma
SNB-19 CNS = test system: SNB-19 CNS
SNB-75 CNS = test system: SNB-75 CNS
HOP-62 NSCLC = test system: HOP-62 NSCLC
HT29 colon = test system: HT29 colon
HCC-2998 colon = test system: HCC-2998 colon

N#Cc1ccc(NC(=O)Nc2nc3ccc(OC(F)(F)F)cc3s2)cc1
GI50 (SF-295 CNS): 1.18 µM | TGI (SF-295 CNS): 4.22 µM | GI50 (A498 renal): 0.473 µM | TGI (A498 renal): 4.41 µM | GI50 (OVCAR-5 ovarian): 4.28 µM | TGI (OVCAR-5 ovarian): 16.1 µM | GI50 (SN12C renal): 1.58 µM | TGI (SN12C renal): 8.64 µM | GI50 (HS 578T breast): 1.78 µM | TGI (HS 578T breast): 7.65 µM | GI50 (NCI/ADR-RES ovarian): 1.55 µM | TGI (NCI/ADR-RES ovarian): 8.39 µM | GI50 (EKVX NSCLC): 1.36 µM | TGI (EKVX NSCLC): 14.7 µM | GI50 (SF-268 CNS): 3.06 µM | TGI (SF-268 CNS): 16.8 µM | GI50 (SK-MEL-28 melanoma): 2.31 µM | TGI (SK-MEL-28 melanoma): 12.3 µM | GI50 (MALME-3M melanoma): 0.843 µM | TGI (MALME-3M melanoma): 5.92 µM | GI50 (PC-3 prostate): 1.36 µM | TGI (PC-3 prostate): 12.2 µM | GI50 (MOLT-4 leukemia): 1.88 µM | TGI (MOLT-4 leukemia): 13.4 µM | GI50 (ACHN renal): 0.732 µM | TGI (ACHN renal): 7.05 µM | GI50 (786-0 renal): 2 µM | TGI (786-0 renal): 6.35 µM | GI50 (MDA-MB-231 breast): 0.935 µM | TGI (MDA-MB-231 breast): 3.65 µM | GI50 (NCI-H522 lung): 0.427 µM | TGI (NCI-H522 lung): 3.09 µM | GI50 (UACC-62 melanoma): 0.737 µM | TGI (UACC-62 melanoma): 3.87 µM | GI50 (DU-145 prostate): 2.7 µM | TGI (DU-145 prostate): 13.6 µM | GI50 (A549 NSCLC): 1.21 µM | TGI (A549 NSCLC): 11.1 µM | GI50 (BT-549 breast): 2.78 µM | TGI (BT-549 breast): 9.36 µM | GI50 (UO-31 renal): 1.67 µM | TGI (UO-31 renal): 7.92 µM | GI50 (SF-539 CNS): 2.9 µM | TGI (SF-539 CNS): 10.1 µM | GI50 (HCT-15 colon): 1.38 µM | TGI (HCT-15 colon): 6.45 µM | GI50 (RXF 393 renal): 1.87 µM | TGI (RXF 393 renal): 7.39 µM | GI50 (NCI-H226 lung): 1.98 µM | TGI (NCI-H226 lung): 10.4 µM | GI50 (M14 melanoma): 2.37 µM | TGI (M14 melanoma): 6.53 µM | GI50 (IGROV1 ovarian): 2 µM | TGI (IGROV1 ovarian): 16.1 µM | GI50 (U251 CNS): 1.43 µM | TGI (U251 CNS): 11.4 µM | GI50 (HL-60(TB) leukemia): 2.44 µM | TGI (HL-60(TB) leukemia): 21.3 µM | GI50 (KM12 colon): 1.02 µM | TGI (KM12 colon): 6.89 µM | GI50 (TK-10 renal): 1.22 µM | TGI (TK-10 renal): 7.03 µM | GI50 (SW-620 colon): 1.61 µM | TGI (SW-620 colon): 12 µM | GI50 (NCI-H460 lung): 0.605 µM | TGI (NCI-H460 lung): 7.81 µM | GI50 (K-562 leukemia): 0.534 µM | TGI (K-562 leukemia): 26.1 µM | GI50 (SK-MEL-5 melanoma): 1.15 µM | TGI (SK-MEL-5 melanoma): 2.54 µM | GI50 (RPMI-8226 leukemia): 1 µM | TGI (RPMI-8226 leukemia): 13.3 µM | GI50 (OVCAR-8 ovarian): 2 µM | TGI (OVCAR-8 ovarian): 9.91 µM | GI50 (NCI-H23 lung): 0.581 µM | TGI (NCI-H23 lung): 6.02 µM | GI50 (SR leukemia): 0.736 µM | TGI (SR leukemia): 5.77 µM | GI50 (UACC-257 melanoma): 1.35 µM | TGI (UACC-257 melanoma): 6.4 µM | GI50 (CAKI-1 renal): 1.59 µM | TGI (CAKI-1 renal): 9.12 µM | GI50 (HOP-92 NSCLC): 0.324 µM | GI50 (CCRF-CEM leukemia): 1.51 µM | TGI (CCRF-CEM leukemia): > 100 µM | GI50 (MDA-MB-435): 1.42 µM | TGI (MDA-MB-435): 6.79 µM | GI50 (MCF7 breast): 1 µM | TGI (MCF7 breast): 11.6 µM | GI50 (OVCAR-4 ovarian): 1.64 µM | TGI (OVCAR-4 ovarian): 44 µM | GI50 (OVCAR-3 ovarian): 0.577 µM | TGI (OVCAR-3 ovarian): 14.3 µM | GI50 (SK-MEL-2 melanoma): 1.78 µM | TGI (SK-MEL-2 melanoma): 4.25 µM | GI50 (COLO 205 colon): 1.68 µM | TGI (COLO 205 colon): 3.9 µM | GI50 (T-47D breast): 0.428 µM | TGI (T-47D breast): 5.8 µM | GI50 (SK-OV-3 ovarian): 2.65 µM | TGI (SK-OV-3 ovarian): 11.1 µM | GI50 (HCT-116 colon): 0.552 µM | TGI (HCT-116 colon): 2.87 µM | GI50 (LOX IMVI melanoma): 1.47 µM | TGI (LOX IMVI melanoma): 4.67 µM | GI50 (SNB-19 CNS): 1.5 µM | TGI (SNB-19 CNS): 13.9 µM | GI50 (SNB-75 CNS): 1.84 µM | TGI (SNB-75 CNS): 7.19 µM | GI50 (HOP-62 NSCLC): 2.52 µM | TGI (HOP-62 NSCLC): 8.12 µM | GI50 (HT29 colon): 2.07 µM | TGI (HT29 colon): 10 µM | GI50 (HCC-2998 colon): 1.28 µM | TGI (HCC-2998 colon): 6.04 µM
